Counter-ions that a name gives are not always drawn. Calls of active or inactive are those of the source.
How the values were obtained:
[1] = biological target: T1, Coagulation factor XII (Homo sapiens, UniProt P00748); type: functional;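 note: activated factor XIIa alpha cleaving a fluorogenic AMC peptide substrate; inhibitor potency from loss of enzyme activity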
T1 sequence (P00748 whole entry): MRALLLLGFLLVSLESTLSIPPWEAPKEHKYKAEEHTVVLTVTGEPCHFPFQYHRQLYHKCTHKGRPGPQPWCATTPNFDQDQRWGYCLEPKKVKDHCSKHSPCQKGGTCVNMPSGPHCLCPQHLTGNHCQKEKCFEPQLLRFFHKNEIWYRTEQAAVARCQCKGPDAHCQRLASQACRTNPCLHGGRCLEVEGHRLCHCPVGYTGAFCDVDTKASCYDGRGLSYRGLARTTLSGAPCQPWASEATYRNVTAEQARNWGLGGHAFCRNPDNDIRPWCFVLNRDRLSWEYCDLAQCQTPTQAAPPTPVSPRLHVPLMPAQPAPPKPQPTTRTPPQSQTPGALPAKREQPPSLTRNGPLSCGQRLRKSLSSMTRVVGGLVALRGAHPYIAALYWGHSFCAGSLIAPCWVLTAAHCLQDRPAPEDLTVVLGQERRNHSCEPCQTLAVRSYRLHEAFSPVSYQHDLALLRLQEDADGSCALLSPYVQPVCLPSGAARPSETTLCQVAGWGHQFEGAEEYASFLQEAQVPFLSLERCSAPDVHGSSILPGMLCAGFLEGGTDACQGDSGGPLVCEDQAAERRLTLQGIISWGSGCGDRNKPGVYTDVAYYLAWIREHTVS

[2] = biological target: Glucose-6-phosphate 1-dehydrogenase (Homo sapiens, UniProt P11413); assay: inhibition of Homo sapiens G6PD, dose series – biochemical, fluorescence, selectivity assay for P. falciparum G6PD inhibitor project, dose response (AID 504792); type: functional
[3] = biological target: T2, Sentrin-specific protease 1 (Homo sapiens, UniProt Q9P0U3); assay: SENP1 catalytic domain blockers, concentration series – biochemical, kinetic FRET, dose response (AID 651697); type: functional; conditions: read-out: IC50_Mean
T2 sequence (Q9P0U3 whole entry): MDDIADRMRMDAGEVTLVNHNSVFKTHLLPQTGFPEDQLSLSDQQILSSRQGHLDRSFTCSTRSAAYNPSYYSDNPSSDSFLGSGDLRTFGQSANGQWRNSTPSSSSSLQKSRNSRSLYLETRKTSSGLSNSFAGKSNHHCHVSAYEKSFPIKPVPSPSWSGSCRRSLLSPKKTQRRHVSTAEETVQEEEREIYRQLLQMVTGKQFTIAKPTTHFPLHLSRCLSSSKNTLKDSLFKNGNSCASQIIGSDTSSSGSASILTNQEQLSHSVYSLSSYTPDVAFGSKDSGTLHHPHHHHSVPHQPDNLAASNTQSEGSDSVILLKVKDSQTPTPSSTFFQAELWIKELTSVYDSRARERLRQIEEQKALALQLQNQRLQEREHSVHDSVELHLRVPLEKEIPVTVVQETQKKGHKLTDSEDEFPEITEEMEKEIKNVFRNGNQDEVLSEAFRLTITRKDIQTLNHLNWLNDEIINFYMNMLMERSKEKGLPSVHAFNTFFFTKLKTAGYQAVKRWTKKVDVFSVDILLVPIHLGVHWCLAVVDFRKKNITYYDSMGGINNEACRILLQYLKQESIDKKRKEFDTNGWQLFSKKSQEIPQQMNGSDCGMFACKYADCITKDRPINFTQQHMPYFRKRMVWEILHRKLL

[4] = biological target: T2, Sentrin-specific protease 1; assay: Dose response confirmation of small molecule inhibitors of the catalytic domain of the SUMO protease, SENP1 in a FRET assay.; type: functional; conditions: read-out: IC50_Mean
[5] = bead-based luminescence quenchers, dual-tagged ARNT – biochemical, AlphaScreen, cherry-pick, artefact control for ARNT-TACC3 interaction inhibitor project, dose response (AID 651705); type: functional;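 note: AlphaScreen bead proximity signal that flags compounds interfering with the detection technology; potency reflects signal decrease which marks the compound as an assay artifact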
[6] = biological target: T3, Latent membrane protein 1 (Human herpesvirus 4 (strain B95-8), UniProt P03230); assay: LMP1 TES1 pathway selectivity over dsRED control – imaging, HEK293T, dual-color eGFP/dsRED, cherry-picks, selectivity assay for LMP1 NF-kB inhibitor project, dose response (AID 588398); type: functional, cell-based
T3 sequence (P03230 whole entry): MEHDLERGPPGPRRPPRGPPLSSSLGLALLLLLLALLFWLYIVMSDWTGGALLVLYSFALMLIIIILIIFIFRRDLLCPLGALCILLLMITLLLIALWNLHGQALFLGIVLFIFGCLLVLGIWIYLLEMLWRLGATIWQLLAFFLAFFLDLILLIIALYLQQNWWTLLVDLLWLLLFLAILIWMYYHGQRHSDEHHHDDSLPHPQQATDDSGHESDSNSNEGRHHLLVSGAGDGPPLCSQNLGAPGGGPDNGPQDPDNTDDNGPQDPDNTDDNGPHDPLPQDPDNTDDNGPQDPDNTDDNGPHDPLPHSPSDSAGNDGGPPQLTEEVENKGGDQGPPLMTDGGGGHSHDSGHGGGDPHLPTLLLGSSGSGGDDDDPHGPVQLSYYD

[7] = biological target: T4, Mitochondrial peptide methionine sulfoxide reductase (Bos taurus, UniProt P54149); type: functional;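 note: absorbance read-out, biochemical high-throughput dose-response screen for MsrA inhibitors, confirmatory; recombinant bovine MsrA coupled to E. coli TrxB with NADPH and selenocystamine; potency is for inhibitors of MsrA activity on DMSO substrate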
T4 sequence (P54149 whole entry): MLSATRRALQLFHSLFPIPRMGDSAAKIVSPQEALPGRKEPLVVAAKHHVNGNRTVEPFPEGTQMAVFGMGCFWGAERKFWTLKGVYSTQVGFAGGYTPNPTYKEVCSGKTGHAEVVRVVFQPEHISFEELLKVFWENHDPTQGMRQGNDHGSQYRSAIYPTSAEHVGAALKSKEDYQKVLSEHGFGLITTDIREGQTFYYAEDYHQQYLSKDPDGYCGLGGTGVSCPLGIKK

[8] = system: HeLa; assay: ATP-based viability loss in HeLa cells – cell-based, CellTiter-Glo luminescence, cherry-pick samples, cytotoxicity control for MITF activator project, dose response (AID 540259); type: functional; conditions: Homo sapiens
[9] = biological target: Adenosylmethionine-8-amino-7-oxononanoate aminotransferase (Mycobacterium tuberculosis, UniProt P9WQ81); assay: Mycobacterium tuberculosis BioA enzyme inhibitor Measured in Biochemical System Using Plate Reader - 2163-02_Inhibitor_Dose_CherryPick_Activity.; type: functional, Mycobacterium tuberculosis UT205
[10] = biological target: Beta-galactosidase (Escherichia coli, UniProt Q8VNN2); assay: PubChem AID 485352; type: functional
[11] = biological target: T5, Type-1 angiotensin II receptor (Homo sapiens, UniProt P30556); assay: antagonism of angiotensin II type 1 receptor – cell-based, uHTS hits, selectivity assay for APJ receptor antagonist project, dose response (AID 463214); type: functional;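 note: antagonist potency against angiotensin II stimulated AT1 response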
T5 sequence (P30556 whole entry): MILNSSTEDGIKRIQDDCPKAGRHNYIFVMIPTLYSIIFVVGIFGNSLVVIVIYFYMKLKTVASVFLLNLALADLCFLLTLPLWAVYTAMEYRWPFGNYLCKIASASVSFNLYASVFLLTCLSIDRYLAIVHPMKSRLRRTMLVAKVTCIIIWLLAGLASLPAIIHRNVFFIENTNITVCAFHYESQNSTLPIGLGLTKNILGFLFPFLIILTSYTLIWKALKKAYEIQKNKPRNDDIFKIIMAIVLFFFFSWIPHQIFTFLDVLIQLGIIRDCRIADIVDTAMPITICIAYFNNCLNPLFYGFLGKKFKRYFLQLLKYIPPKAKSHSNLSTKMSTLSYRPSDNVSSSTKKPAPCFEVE

[12] = Luminescence Cell-Based Dose Response HTS to Identify Inhibitors of 5'UTR Stem-Loop Driven Prion Protein mRNA Translation in H4 Neuroglioblastoma Cells. [Related pubchem assays: 1827 (Project Summary), 1813 (Primary HTS)]; type: functional
[13] = biological target: Melanocortin receptor 4 (Homo sapiens, UniProt P32245); assay: inhibitors of MC4R cAMP signaling – cell-based, TR-FRET, biased antagonists, dose response (AID 602298); type: functional;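 note: antagonist potency against agonist-stimulated cAMP production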
[14] = luciferase reporter signal suppression in cells – H4 neuroglioma cells, luminescence, dose response (AID 1990); type: functional, cell-based
[15] = cAMP pathway inhibition in counterscreen cell line – TR-FRET cAMP detection, counter-screen for MC4R biased antagonist project, dose response (AID 602305); type: functional, cell-based;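 note: U2OS cells stimulated with forskolin near its EC80 as the cAMP inducer; potency is for inhibition of forskolin-stimulated cAMP signaling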
[16] = alpha-synuclein stem-loop luciferase translation blockers – H4 neuroglioma cells, luminescence, confirmation (AID 1988); type: functional, cell-based
[17] = Luminescence Cell-Based Dose Confirmation HTS to Identify Inhibitors of Platelet Dense Granule Release. [Related pubchem assays: 1663 (Primary HTS), 1678 (Summary of Project)]; type: functional
[18] = biological target: Luciferin 4-monooxygenase (Photinus pyralis, UniProt P08659); assay: inhibition of purified Photinus pyralis luciferase – biochemical, luminescence, dose response (AID 1891)
[19] = biological target: SWI/SNF-related matrix-associated actin-dependent regulator of chromatin subfamily A member 2 (Homo sapiens, UniProt P51531); assay: Luminescence-based cell-based high throughput dose response assay to identify activators of the function of SWI/SNF related, matrix associated, actin dependent regulator of chromatin, subfamily a, member 2 (SMARCA2, BRM).; type: functional
[20] = Counterscreen for activators of the function of SWI/SNF related, matrix associated, actin dependent regulator of chromatin, subfamily a, member 2 (SMARCA2, BRM): Luminescence-based cell-based high throughput dose response assay to identify non-selective compounds using the VP16 reporter assay.; type: functional
[21] = biological target: Protein Wnt-3a (Mus musculus, UniProt P27467); assay: antagonism of Wnt3a pathway luciferase reporter – Wnt-LIGHT cells, luminescence, selectivity assay for Gli-SUFU antagonist project, dose response (AID 651570); type: functional; conditions: read-out: IC50_Mean;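 note: Wnt-LIGHT reporter cells stimulated with conditioned medium from Wnt3a-producing cells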
[22] = biological target: Photoreceptor-specific nuclear receptor (Homo sapiens, UniProt Q9Y5X4); type: functional, cell-based;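 note: CHO-S cells with Gal4-NCOR and VP16-NR2E3 two-hybrid luciferase reporter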
[23] = Luminescence Cell-Based Dose Retest to Confirm Inhibitors of Cancer Stem Cells. [Related pubchem assays (depositor defined):AID2717, AID2721]; type: functional; conditions: Homo sapiens
[24] = biological target: T6, Endoribonuclease toxin MazF (Escherichia coli K-12, UniProt P0AE70); assay: activation of MazEF endoribonuclease cleavage – biochemical, fluorescence, single-stranded RNA substrate, uHTS hits, dose response (AID 588481); type: functional
T6 sequence (P0AE70 whole entry): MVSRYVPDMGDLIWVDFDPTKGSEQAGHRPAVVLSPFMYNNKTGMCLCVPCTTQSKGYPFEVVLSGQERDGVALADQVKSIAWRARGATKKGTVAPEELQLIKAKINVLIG

[25] = biological target: T6, Endoribonuclease toxin MazF; assay: substrate-only fluorescence increase artefacts – biochemical, single-stranded RNase substrate, counter-screen for MazEF activator project, dose response (AID 588502); type: functional
[26] = biological target: Large T antigen (Simian virus 40, UniProt P03070); type: functional, Betapolyomavirus macacae;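 note: Confirmatory-stage PubChem screen for compounds that inhibit SV40 T antigen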
[27] = biological target: Paired box protein Pax-8 (Homo sapiens, UniProt Q06710); assay: PAX8 transcriptional activity inhibition in RMG-I – RMG-I cells, luciferase, cherry-pick, dose response (AID 687027); type: functional, cell-based;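 note: luciferase reporter driven by Pax8 target thyroperoxidase promoter measured by SteadyGlo luminescence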
[28] = system: HEK293; assay: EBV LMP1 TES2 canonical NF-kB signalling blockers – cell-based, HEK293, luciferase, cherry-pick, dose response (AID 588343); type: functional; conditions: Homo sapiens

Sequence of Beta-galactosidase (Q8VNN2 whole entry): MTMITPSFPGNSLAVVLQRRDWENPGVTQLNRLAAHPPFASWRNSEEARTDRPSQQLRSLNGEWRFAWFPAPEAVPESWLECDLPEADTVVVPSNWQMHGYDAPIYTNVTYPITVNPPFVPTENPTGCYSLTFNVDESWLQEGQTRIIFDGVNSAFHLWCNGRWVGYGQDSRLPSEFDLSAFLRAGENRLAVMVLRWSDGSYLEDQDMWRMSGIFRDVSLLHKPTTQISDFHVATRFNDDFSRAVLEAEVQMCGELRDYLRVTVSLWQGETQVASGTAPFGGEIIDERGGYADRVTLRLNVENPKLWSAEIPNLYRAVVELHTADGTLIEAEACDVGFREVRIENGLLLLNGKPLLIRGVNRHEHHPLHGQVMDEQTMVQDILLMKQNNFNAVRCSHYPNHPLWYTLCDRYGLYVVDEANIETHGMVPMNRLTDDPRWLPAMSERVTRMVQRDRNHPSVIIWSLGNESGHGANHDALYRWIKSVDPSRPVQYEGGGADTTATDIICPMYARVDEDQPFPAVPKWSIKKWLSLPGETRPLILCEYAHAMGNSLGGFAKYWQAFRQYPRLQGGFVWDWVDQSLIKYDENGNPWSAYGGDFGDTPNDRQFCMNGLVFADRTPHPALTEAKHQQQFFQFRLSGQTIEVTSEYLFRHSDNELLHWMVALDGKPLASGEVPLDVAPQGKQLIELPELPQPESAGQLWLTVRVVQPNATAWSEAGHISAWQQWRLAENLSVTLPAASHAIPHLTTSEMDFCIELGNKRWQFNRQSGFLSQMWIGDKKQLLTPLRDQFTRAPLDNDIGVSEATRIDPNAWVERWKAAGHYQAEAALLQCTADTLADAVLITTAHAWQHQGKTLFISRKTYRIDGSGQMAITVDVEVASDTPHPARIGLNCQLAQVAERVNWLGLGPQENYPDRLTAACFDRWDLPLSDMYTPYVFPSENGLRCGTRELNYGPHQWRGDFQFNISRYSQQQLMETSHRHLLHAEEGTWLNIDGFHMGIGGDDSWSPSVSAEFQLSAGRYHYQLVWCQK
Sequence of Adenosylmethionine-8-amino-7-oxononanoate aminotransferase (P9WQ81 whole entry): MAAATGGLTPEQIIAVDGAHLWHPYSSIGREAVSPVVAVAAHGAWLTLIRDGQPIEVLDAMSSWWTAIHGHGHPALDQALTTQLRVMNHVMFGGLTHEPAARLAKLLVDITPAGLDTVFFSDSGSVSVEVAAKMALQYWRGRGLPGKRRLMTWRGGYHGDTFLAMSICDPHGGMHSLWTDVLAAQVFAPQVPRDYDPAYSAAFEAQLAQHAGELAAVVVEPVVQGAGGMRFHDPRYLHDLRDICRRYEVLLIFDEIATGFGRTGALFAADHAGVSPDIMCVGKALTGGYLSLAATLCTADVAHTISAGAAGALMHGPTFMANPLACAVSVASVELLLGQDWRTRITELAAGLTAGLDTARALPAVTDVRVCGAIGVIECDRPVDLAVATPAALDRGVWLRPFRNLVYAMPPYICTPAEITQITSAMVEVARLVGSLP
Sequence of Melanocortin receptor 4 (P32245 whole entry): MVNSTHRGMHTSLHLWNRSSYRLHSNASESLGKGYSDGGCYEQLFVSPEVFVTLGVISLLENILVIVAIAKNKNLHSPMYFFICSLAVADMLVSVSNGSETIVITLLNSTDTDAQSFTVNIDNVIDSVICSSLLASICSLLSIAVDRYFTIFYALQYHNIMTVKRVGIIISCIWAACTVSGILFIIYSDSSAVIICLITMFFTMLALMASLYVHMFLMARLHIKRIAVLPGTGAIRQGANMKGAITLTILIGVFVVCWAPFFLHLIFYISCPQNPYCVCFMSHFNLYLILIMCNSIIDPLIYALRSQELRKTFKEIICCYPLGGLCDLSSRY
Sequence of SWI/SNF-related matrix-associated actin-dependent regulator of chromatin subfamily A member 2 (P51531 whole entry): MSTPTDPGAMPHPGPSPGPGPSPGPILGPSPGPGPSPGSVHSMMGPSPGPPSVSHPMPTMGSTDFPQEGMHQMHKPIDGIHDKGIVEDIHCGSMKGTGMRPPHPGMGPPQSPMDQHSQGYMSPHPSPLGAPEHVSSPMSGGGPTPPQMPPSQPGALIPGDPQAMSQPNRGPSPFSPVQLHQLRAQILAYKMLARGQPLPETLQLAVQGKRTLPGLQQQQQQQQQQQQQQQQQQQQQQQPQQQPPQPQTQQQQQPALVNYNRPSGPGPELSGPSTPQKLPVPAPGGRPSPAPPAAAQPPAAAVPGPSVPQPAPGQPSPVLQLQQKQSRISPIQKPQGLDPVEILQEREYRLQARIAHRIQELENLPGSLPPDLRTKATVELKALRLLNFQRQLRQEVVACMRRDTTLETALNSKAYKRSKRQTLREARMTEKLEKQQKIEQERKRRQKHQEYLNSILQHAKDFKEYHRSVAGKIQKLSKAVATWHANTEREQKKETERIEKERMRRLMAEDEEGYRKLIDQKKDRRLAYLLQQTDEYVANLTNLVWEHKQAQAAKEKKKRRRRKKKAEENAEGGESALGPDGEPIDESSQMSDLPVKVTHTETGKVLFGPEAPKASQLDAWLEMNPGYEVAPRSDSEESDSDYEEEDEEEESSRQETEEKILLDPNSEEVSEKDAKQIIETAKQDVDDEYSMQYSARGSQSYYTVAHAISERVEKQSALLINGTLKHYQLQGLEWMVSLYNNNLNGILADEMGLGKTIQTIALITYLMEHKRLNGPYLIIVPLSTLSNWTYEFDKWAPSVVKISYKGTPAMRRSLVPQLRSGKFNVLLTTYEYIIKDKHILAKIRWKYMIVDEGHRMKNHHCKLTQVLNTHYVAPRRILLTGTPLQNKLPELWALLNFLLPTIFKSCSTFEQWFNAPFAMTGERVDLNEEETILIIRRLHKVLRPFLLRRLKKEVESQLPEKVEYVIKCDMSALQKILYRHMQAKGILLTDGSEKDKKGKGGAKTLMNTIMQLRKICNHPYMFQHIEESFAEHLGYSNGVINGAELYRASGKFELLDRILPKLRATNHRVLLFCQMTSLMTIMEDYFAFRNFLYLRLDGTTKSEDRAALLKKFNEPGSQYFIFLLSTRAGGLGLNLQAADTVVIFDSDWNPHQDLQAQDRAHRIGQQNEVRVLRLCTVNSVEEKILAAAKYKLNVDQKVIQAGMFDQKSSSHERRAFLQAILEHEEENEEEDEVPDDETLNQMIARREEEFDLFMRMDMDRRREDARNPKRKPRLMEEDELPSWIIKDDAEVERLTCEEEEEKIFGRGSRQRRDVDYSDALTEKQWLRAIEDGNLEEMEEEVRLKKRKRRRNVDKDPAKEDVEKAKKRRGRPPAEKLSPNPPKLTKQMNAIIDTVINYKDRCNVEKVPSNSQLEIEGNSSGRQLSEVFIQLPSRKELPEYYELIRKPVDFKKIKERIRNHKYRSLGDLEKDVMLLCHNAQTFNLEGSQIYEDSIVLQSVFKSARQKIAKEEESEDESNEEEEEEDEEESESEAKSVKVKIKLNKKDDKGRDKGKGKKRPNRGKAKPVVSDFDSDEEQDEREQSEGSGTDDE
Sequence of Protein Wnt-3a (P27467 whole entry, the tested form may be a part): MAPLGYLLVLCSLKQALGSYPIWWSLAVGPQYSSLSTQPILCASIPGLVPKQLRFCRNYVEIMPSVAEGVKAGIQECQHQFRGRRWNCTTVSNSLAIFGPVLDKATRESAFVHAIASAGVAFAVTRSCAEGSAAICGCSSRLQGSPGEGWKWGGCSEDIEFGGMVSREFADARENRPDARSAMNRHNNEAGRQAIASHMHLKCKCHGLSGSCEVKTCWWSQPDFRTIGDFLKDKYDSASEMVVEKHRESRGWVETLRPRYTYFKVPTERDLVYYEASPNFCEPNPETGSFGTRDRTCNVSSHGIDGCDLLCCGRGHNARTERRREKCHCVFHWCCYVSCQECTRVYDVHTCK
Sequence of Paired box protein Pax-8 (Q06710 whole entry): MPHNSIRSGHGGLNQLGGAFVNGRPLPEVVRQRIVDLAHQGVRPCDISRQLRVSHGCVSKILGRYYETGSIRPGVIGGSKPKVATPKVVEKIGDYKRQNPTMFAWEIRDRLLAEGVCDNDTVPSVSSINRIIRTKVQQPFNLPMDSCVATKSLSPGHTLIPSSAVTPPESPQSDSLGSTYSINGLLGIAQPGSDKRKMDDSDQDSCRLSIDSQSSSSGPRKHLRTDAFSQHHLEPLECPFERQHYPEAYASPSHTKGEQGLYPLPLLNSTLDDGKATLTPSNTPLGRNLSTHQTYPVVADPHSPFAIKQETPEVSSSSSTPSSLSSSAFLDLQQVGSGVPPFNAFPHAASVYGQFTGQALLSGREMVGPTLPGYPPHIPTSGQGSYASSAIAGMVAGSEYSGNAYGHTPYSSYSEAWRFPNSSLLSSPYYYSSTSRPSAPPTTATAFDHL
Sequence of Large T antigen (P03070 whole entry): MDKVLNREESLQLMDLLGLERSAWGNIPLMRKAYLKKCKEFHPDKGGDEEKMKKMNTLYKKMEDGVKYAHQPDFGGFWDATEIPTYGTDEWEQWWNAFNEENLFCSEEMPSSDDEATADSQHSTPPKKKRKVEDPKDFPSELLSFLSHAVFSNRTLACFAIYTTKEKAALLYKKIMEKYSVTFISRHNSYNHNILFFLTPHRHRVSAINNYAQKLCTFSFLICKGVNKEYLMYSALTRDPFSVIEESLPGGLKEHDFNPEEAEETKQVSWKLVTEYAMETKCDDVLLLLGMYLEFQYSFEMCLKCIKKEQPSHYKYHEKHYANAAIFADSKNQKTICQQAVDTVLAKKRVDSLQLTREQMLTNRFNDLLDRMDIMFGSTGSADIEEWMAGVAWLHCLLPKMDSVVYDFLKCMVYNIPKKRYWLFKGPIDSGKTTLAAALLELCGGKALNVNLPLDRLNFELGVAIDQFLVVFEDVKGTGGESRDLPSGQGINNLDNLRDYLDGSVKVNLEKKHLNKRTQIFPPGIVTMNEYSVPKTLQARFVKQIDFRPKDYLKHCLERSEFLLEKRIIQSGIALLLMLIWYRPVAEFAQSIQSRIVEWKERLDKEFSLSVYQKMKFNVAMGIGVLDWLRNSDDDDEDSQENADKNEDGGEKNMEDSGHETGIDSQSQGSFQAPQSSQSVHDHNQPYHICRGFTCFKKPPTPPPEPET

COc1ccc(C(=O)ON=C2C=C(C)C(=O)C(C)=C2)cc1
IC50 [1]: 0.574 µM (active) | IC50 [2]: > 80 µM (inactive)

Oc1nncc2c3ccccc3n(Cc3cccc(Cl)c3)c12
IC50 [3]: 4.55 µM (active) | IC50 [4]: 4.44 µM (active)

COc1cccc(C2c3[nH]c4ccccc4c3CCN2Cc2ncc[nH]2)c1 (centres undefined)
AC50 [5]: 123 µM (active)

Cn1cc(CC(=O)NCCCN2CCCC2)c2ccccc21
AC50 [6]: 43.5 µM (active)

Cc1ccc(C2=N/C(=C/N3CCOCC3)C(=O)O2)cc1
IC50 [7]: 142 µM (inactive)

Cc1ccc(NC(=O)Nc2ccc3c(c2)N(C)C(=O)CS3)nc1
AC50 [8]: > 350 µM (inactive)

Fc1ccc2nc(N3CCCC3)sc2c1
AC50 [8]: 42.8 µM (active)

Nn1c(SCc2nc3ccccc3[nH]2)nnc1-c1cccnc1
AC50 [9]: 5.06 µM (active)

O=C(Nc1ccccc1Cl)c1ccc2nccnc2c1
AC50 [8]: 67.6 µM (active)

COc1ccc(-c2cc(-c3ccccc3)nc(NN)n2)cc1OC
EC50 [10]: > 40 µM (inactive) | IC50 [11]: 11.2 µM (active)

Cc1ccc(C)c(NC(=O)COC(=O)c2cccc3c2C(=O)c2ccccc2C3=O)c1
EC50 [12]: > 60 µM (not active) | IC50 [13]: > 64.6 µM (inactive) | EC50 [14]: > 120 µM (not active) | IC50 [15]: > 64.6 µM (inactive) | EC50 [16]: > 120 µM (not active)

Brc1ccc(N=Nc2ccc3ccccc3n2)cc1
EC50 [10]: > 40 µM (inactive) | EC50 [14]: 0.107 µM (active) | IC50 [11]: > 40 µM (not active) | EC50 [17]: 0.969 µM (active) | EC50 [18]: 0.299 µM (active) | EC50 [16]: 0.125 µM (active)

O=C(CNc1ccc(Br)cc1)c1ccc(Br)s1
EC50 [10]: > 40 µM (inactive) | EC50 [19]: > 91.1 µM (inactive) | IC50 [11]: 14.7 µM (active) | EC50 [20]: > 91.1 µM (inactive)

O=C(C[C@@H]1C/C=C\C[C@H](NC(=O)OCC2c3ccccc3-c3ccccc32)C(=O)OC[C@H]2CCCN2C1=O)N[C@H](CO)Cc1ccccc1
IC50 [21]: 8.46 µM (active)

CCCCC[C@@H]1C=C(C(=O)O)[C@H](c2ccc(Cl)c(Cl)c2)N1S(=O)(=O)c1ccc(C)cc1
IC50 [22]: 4.88 µM (active) | AC50 [23]: 4.58 µM (active)

COc1ccc(NC(=O)c2ccc(-n3cncn3)c([N+](=O)[O-])c2)cc1OC
AC50 [9]: 2.2 µM (active)

COC(=O)c1c(NC(=O)C2COc3ccccc3O2)sc2c1CCN(C(=O)OC)C2 (centres undefined)
IC50 [13]: > 64.6 µM (inactive) | IC50 [15]: > 64.6 µM (inactive)

COc1ccc(NC(=O)N[C@@H]2CC[C@@H](CCn3cc(-c4ccccn4)nn3)O[C@H]2CO)cc1
AC50 [5]: 82.2 µM (active)

CC(C)(C)OC(=O)N/N=C/c1ccc(N2CCOCC2)s1
IC50 [3]: 8.28 µM (active) | EC50 [24]: > 99 µM (inactive) | IC50 [4]: 11.9 µM (active) | EC50 [25]: 46.9 µM (inactive) | IC50 [26]: 13.2 µM (active)

CCN(CC)c1ccc(C(NC(=O)C(C)C)c2ccc3cccnc3c2O)cc1 (centres undefined)
AC50 [27]: 1.09 µM (active) | AC50 [6]: 3.72 µM (active) | AC50 [28]: 7.26 µM (active)

C[C@@H]1CN([C@H]2CC[C@](C#N)(c3ccc(F)cc3)CC2)CC[C@]1(C(=O)O)c1ccccc1 [LEVOCABASTINE HYDROCHLORIDE]
AC50 [6]: 197 µM (active)

— ChEMBL document CHEMBL1201862, “PubChem BioAssay data set” (2004)
